{"source": "paper PMC5613053", "about": "(Investigational New Drugs, 2017)", "key": {"[1]": {"test_system": "Ba/F3 cells expressing FLT3-ITD", "assay": "cells", "details": "Mus musculus, BaF3, 48 h, read-out: Cell growth inhibition IC50", "procedure": "(§1) A detailed protocol is provided in the online resource.\n(§2) To examine the effect of ASP2215 on cell viability, MV4-11, MOLM-13, and Ba/F3 cells expressing either FLT3-ITD, FLT3-D835Y, FLT3-ITD-D835Y, FLT3-ITD-F691L or FLT3-ITD-F691I were seeded into 96-well white plates (Nunc F96 MicroWell™ Plates, white; Thermo Fisher Scientific Inc., Waltham, MA) at 1000 cells/well in Iscove’s Modified Dulbecco’s Medium, 500 cells/well in RPMI 1640 or 1000 cells/well in RPMI 1640, respectively. All cell lines were cultured overnight in a humidified incubator at 37°C with 5% CO2 in media supplemented with 10% heat-inactivated FBS.\n(§3) After treatment, the CellTiter-Glo® Luminescent Cell Viability Assay (Promega) was used according to the manufacturer’s instructions and luminescence was measured using an ARVO-HTS plate reader (Perkin Elmer Inc., Waltham, MA). The assay was performed in either triplicate or quadruplicate. […] The geometric mean was calculated from three individual experiments.\n(§4) The mutants of FLT3 (NM_004119), FLT3-D835Y (gat to tat), FLT3-ITD (insertion of […] at 1799 position of CDS), FLT3-ITD-F691I (ttt to att), FLT3-ITD-F691L (ttt to ctt), FLT3-ITD-D835Y were encoded into pMX-puro vector (Cell Biolabs, Inc., San Diego, CA), and transfected with FuGENE-HD (Promega) into Platinum-E cells. […]"}, "[2]": {"test_system": "Ba/F3 cells expressing FLT3-ITD-D835Y", "assay": "cells", "details": "Mus musculus, BaF3, 48 h, read-out: Cell growth inhibition IC50", "procedure": "as §1, §2, §3, §4"}, "phosphorylated FLT3": {"molecular_target": "T1, phosphorylated FLT3 (Homo sapiens, UniProt P36888, INS600HVDFREYEYD)", "T1 construct": "MV4–11 cells, which endogenously express FLT3-ITD; from tissue; host or cells: MV4-11 xenograft tumours from nude mice", "T1 sequence (P36888 with tags, fused parts or gaps INS600HVDFREYEYD)": "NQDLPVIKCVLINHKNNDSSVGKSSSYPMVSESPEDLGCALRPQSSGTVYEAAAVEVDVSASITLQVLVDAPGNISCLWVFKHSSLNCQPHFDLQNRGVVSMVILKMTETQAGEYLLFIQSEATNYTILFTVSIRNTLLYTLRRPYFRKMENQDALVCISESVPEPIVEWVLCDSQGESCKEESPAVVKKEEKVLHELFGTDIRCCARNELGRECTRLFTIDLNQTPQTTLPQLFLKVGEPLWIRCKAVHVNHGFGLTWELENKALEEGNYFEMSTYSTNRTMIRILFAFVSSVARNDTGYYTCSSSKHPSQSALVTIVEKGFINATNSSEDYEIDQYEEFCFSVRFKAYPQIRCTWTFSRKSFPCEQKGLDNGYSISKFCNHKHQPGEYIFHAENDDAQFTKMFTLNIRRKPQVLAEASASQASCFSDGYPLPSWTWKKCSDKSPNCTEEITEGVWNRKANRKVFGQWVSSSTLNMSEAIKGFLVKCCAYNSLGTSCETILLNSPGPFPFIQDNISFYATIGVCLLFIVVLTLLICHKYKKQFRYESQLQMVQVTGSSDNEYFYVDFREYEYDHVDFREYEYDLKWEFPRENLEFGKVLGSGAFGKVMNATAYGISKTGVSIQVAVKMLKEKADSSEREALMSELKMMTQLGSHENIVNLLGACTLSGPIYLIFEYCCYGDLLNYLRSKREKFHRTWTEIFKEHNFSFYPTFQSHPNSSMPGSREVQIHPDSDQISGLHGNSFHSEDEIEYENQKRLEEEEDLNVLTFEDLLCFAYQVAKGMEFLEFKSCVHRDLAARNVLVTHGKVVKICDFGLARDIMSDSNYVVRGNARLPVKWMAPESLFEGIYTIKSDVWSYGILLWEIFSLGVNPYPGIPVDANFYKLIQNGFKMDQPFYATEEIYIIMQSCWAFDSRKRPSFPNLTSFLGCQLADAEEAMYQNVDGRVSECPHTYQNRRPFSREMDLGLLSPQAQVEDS", "assay": "ELISA for phosphorylated FLT3 / total FLT3 in MV4-11 xenograft tumors", "assay_type": "in vivo, mice", "procedure": "Detailed protocols can be found in the online resource.\nAfter 1 month, mice were divided into groups, with each group having approximately the same mean tumor volume.\nMULTI-ARRAY® 96-well plates (Meso Scale Discovery, Rockville, MD) were coated with capture antibodies for phosphorylated FLT3 or total FLT3 (DuoSet® IC, R&D systems, Minneapolis, MN) and incubated overnight at 4°C with shaking. After washing with TBS-T, coated plates were blocked with 3% MSD® Blocker-A (Meso Scale Discovery) in TBS-T for 1 h at room temperature and then incubated with total protein lysates derived from MV4-11 xenografted tumors (500 μg/well for phosphorylated FLT3 and 20 μg/well for FLT3), overnight at 4°C. Following a wash step, anti-phosphotyrosine antibody (clone 4G10®, Biotin Conjugate [Millipore, Billerica, MA]) for the detection of phosphorylated FLT3 or the DuoSet® IC FLT3 detection antibody for total FLT3 were added to the plate and incubated for 2 h at room temperature. Wells were then washed and incubated with MSD® SULFO-TAG Labeled Streptavidin (Meso Scale Discovery) for 1 h at room temperature, followed by the addition of MSD® Read Buffer (Meso Scale Discovery). Electrochemiluminescent signals were measured using a SECTOR® imager (Meso Scale Discovery). Phosphorylation levels were normalized to total FLT3 levels in each group (3 mice/group except the point at 1 h after the administration of 1 mg/kg [2 mice]) relative to the mean value of the control group (5 mice/group). Data are reported as mean ± SEM."}, "[3]": {"test_system": "Ba/F3 cells expressing FLT3-ITD-D835Y", "assay": "Ba/F3 FLT3-ITD-D835Y subcutaneous xenograft", "assay_type": "in vivo, mice", "details": "up to 7 days", "procedure": "(§5) Once tumor growth had been confirmed, mice xenografted with MV4–11 cells were monitored for 28 days; mice xenografted with Ba/F3 cells expressing FLT3 mutations were monitored for 7 days. Tumor diameter was measured using a caliper, and tumor volume was determined by calculating the volume of an ellipsoid using the formula: length × width^2 × 0.5. Body weight was measured using a standard balance. Data are expressed as mean ± SEM from n = 6 mice/group (MV4–11) and n = 5 mice/group (Ba/F3).\n(§6) After tumor establishment, mice were divided into groups such that the mean tumor volume was approximately equal in each group."}, "[4]": {"test_system": "Ba/F3 cells expressing FLT3-ITD", "assay": "Ba/F3 FLT3-ITD subcutaneous xenograft", "assay_type": "in vivo, mice", "details": "up to 7 days", "procedure": "as §5, §6"}}, "data": [{"smiles": "CCc1nc(C(N)=O)c(Nc2ccc(N3CCC(N4CCN(C)CC4)CC3)c(OC)c2)nc1NC1CCOCC1", "note": "[gilteritinib]", "values": [{"measurement": "IC50", "setting": "[1]", "value": 1.8, "unit": "nM"}, {"measurement": "IC50", "setting": "[2]", "value": 2.1, "unit": "nM"}, {"measurement": "Phospho-FLT3 state in tumor", "setting": "phosphorylated FLT3; single oral 1 mg/kg, by 24 h", "value": "returned to the pre-treatment level"}, {"measurement": "Decrease in phospho-FLT3 in tumor", "setting": "phosphorylated FLT3; single oral 10 mg/kg, 24 h period", "value": "maintained throughout the 24 h experimental period"}, {"measurement": "Decrease of phosphorylated FLT3 in tumor compared with control", "setting": "phosphorylated FLT3; within 1 h after single oral 1–10 mg/kg", "value": "approximately 40%"}, {"measurement": "Antitumor effect (tumor volume)", "setting": "[3]; 10 mg/kg once-daily oral", "value": "showed antitumor efficacy"}, {"measurement": "Antitumor effect (tumor volume)", "setting": "[3]; 30 mg/kg once-daily oral", "value": "induced tumor regression"}, {"measurement": "Antitumor effect (tumor volume)", "setting": "[4]; 10 mg/kg once-daily oral", "value": "showed antitumor efficacy"}, {"measurement": "Antitumor effect (tumor volume)", "setting": "[4]; 30 mg/kg once-daily oral", "value": "induced tumor regression"}]}]}
